Laboratory results: patent US7081448B2, “Benzyllactobionamides as inhibitors of smooth muscle cell proliferation” (Wyeth, priority 1998, dated 2006)

Test system: Porcine Smooth Muscle Cell
Assay: Effects of compounds on cell proliferation using 3H thymidine incorporation
Format: cell-based
Conditions: porcine smooth muscle cells, serum/growth factor stimulated; for Porcine Smooth Muscle Cell Antiproliferation, percent inhibition: @ 500 μM; for IC50: 24–36 h, read-out: Porcine Smooth Muscle Cell Antiproliferation IC50
Experimental: The compounds of this invention are useful as antiproliferative agents. The following procedures show the evaluation of representative compounds of this invention in standard pharmacological test procedure which measured ability of the evaluated compound to inhibit smooth muscle cell proliferation
Effects of Compounds on Cell Proliferation Using ^3H Thymidine Incorporation
Human and porcine smooth muscle cells were tested in early passage (generally passage 3–7) at sub-confluent conditions. Cultures were grown in 16 mm (24 well) multi-well culture dishes in medium 199 supplemented with 10% fetal bovine serum and 2% antibiotic/antimycotic. At sub-confluence, the cells were placed in a defined serum free medium (AIM-V; Gibco) for 24–48 h prior to initiating the experimental protocol. […] Compounds were added to each well at 50 fold dilution (20 μL/well) and the plates were incubated for 24–36 h at 37° C. in 5% CO2. Compounds were initially dissolved in 50% ethanol and serially diluted into media. Compounds were routinely evaluated at concentrations from 1 to 100 μM. As a control, grade II porcine intestinal mucosal heparin (sodium salt) was routinely evaluated in all cell preparations at concentrations from 0.1 to 100 μg/mL. At the completion of the test procedure, plates were placed on ice, washed three times with ice cold phosphate buffered saline (PBS) and incubated in ice cold 10% trichloroacetic acid (TCA) got 30 min to remove acid soluble proteins. Solution was transferred to scintillation vials containing 0.4 N HCl (500 μL/vial to neutralize NaOH) and each well was rinsed two times with water (500 μL) for a total volume of 2 mL/vial. Data was obtained, in triplicate, for both control and experimental samples. Control (100%) data was obtained from maximally stimulated cells, as the result of growth factor or serum stimulation. Experimental data was obtained from cells maximally stimulated with growth factor or serum and treated with compound. Data are expressed as an IC50 or percent inhibition in Table I below.

| Compound | Porcine Smooth Muscle Cell Antiproliferation, percent inhibition [% @ 500] | IC50 [µM] |
| --- | --- | --- |
| N-Benzyl-octa-O-sulfo-lactobionamide Octasodium Salt [Example 2] | 45 | – |
| N-[3-(Acetylamino)-benzyl]-octa-O-sulfo-lactobionamide Octasodium Salt [Example 7] | – | 122 |
| CC(=O)OC[C@H]1O[C@@H](O[C@@H]([C@H](OC(C)=O)[C@@H](OC(C)=O)C(=O)NCc2cccc(N)c2)[C@@H](COC(C)=O)OC(C)=O)[C@H](OC(C)=O)[C@@H](OC(C)=O)[C@H]1OC(C)=O [Example 5, N-(3-Amino-benzyl)-octa-O-acetyl-lactobionamide] | 12 | – |
| CC(=O)OC[C@H]1O[C@@H](O[C@@H]([C@H](OC(C)=O)[C@@H](OC(C)=O)C(=O)NCc2ccccc2)[C@@H](COC(C)=O)OC(C)=O)[C@H](OC(C)=O)[C@@H](OC(C)=O)[C@H]1OC(C)=O [Example 1, N-Benzyl-octa-O-acetyl-lactobionamide] | – | 118 |
| CC(=O)OC[C@H]1O[C@@H](O[C@@H]([C@H](OC(C)=O)[C@@H](OC(C)=O)C(=O)NCc2ccc(N)cc2)[C@@H](COC(C)=O)OC(C)=O)[C@H](OC(C)=O)[C@@H](OC(C)=O)[C@H]1OC(C)=O [Example 4, N-(4-Amino-benzyl)-octa-O-acetyl-lactobionamide] | 30 | – |
